According to DBAASP:
Values after ≈ are worked out from the molar mass of the structure shown. Blank lines part the entries; values can stand above or below the compound they belong to.

Experiments:
Assay in all cases: ≥ marks a high value that may be exact or a test limit, other limits are often not marked, values filed in µg/mL are converted to µM
[1] = system: Cryptococcus neoformans ATCC 34881
[2] = system: Streptococcus mutans ATCC 25175
[3] = system: Bacillus subtilis ATCC 62037
[4] = system: Staphylococcus aureus ATCC 15752
[5] = system: Candida albicans ATCC 10231
[6] = system: Pseudomonas putida ATCC 17426
Serratia sp. ATCC 21074 = system: Serratia sp. ATCC 21074
[7] = system: Escherichia coli ATCC 27325
[8] = system: Saccharomyces cerevisiae ATCC 44774
[9] = system: Streptococcus sanguinis NY101
[10] = system: Streptococcus gordonii Challis DL1
[11] = system: Pseudomonas aeruginosa PAK
[12] = system: Streptococcus mitis ATCC 903
[13] = system: Streptococcus mutans UA159
Staphylococcus aureus = system: Staphylococcus aureus
[14] = system: Staphylococcus epidermidis ATCC 12228
[15] = system: Staphylococcus aureus ATCC 6538
[16] = system: Micrococcus luteus ATCC 4698
[17] = system: Escherichia coli DH5alpha
[18] = system: Staphylococcus aureus PTCC 1431
[19] = system: Klebsiella pneumoniae PTCC 1388
[20] = system: Escherichia coli HP101BA 7601c
[21] = system: Micrococcus luteus PTCC 1625
[22] = system: Staphylococcus aureus Newman
[23] = system: Staphylococcus epidermidis 1457
[24] = system: Escherichia coli ATCC 25922
Bacillus subtilis 168 = system: Bacillus subtilis 168
[25] = system: Staphylococcus aureus USA 400
[26] = system: Klebsiella pneumoniae ATCC 13883
[27] = system: Staphylococcus aureus USA 200
[28] = system: Candida albicans ATCC 90028
[29] = system: Staphylococcus aureus UAMS-1
[30] = system: Staphylococcus aureus ATCC 25923
[31] = system: Staphylococcus aureus MU50
[32] = system: Pseudomonas aeruginosa PAO1
[33] = system: Candida tropicalis ATCC 13803
[34] = system: Escherichia coli ATCC 25726
[35] = system: Staphylococcus aureus USA 300
[36] = system: Candida glabrata ATCC 2001

MIC [1]: 4.46 µM (≈ 16 µg/mL)
MIC [2]: 5.57 µM (≈ 20 µg/mL)
MIC [3]: 2.23 µM (≈ 8 µg/mL)
MIC [4]: 3.34 µM (≈ 12 µg/mL)
MIC [5]: 3.34 µM (≈ 12 µg/mL)
MIC [6]: 3.34 µM (≈ 12 µg/mL)
MIC (Serratia sp. ATCC 21074): 3.34 µM (≈ 12 µg/mL)
MIC [7]: 2.23 µM (≈ 8 µg/mL)
MIC [8]: 2.23 µM (≈ 8 µg/mL)
Structure (SMILES): CC[C@H](C)[C@H](NC(=O)[C@H](CCCN=C(N)N)NC(=O)[C@H](CCC(=O)O)NC(=O)[C@@H]1CCCN1C(=O)[C@@H]1CCCN1C(=O)[C@H](Cc1ccc(O)cc1)NC(=O)[C@H](CC(C)C)NC(=O)[C@H](Cc1ccccc1)NC(=O)[C@H](CCC(N)=O)NC(=O)[C@@H]1CCCN1C(=O)CNC(=O)[C@@H](NC(=O)[C@H](Cc1ccc(O)cc1)NC(=O)[C@H](CCC(N)=O)NC(=O)[C@H](CC(N)=O)NC(=O)[C@H](CCCCN)NC(=O)[C@H](CCCN=C(N)N)NC(=O)[C@H](CCC(=O)O)NC(=O)[C@H](CO)NC(=O)[C@H](Cc1ccc(O)cc1)NC(=O)[C@@H]1CCCN1C(=O)[C@H](CCCN=C(N)N)NC(=O)[C@H](CCCCN)NC(=O)[C@H](CC(=O)O)NC(=O)[C@H](CCCCN)NC(=O)[C@H](CCC(N)=O)NC(=O)[C@@H](N)CCCN=C(N)N)[C@@H](C)O)C(=O)N1CCC[C@H]1C(=O)N1CCC[C@H]1C(=O)O [RQKDKRPYSERKNQYTGPQFLYPPERIPP]

MIC [9]: 4.98 µM (≈ 16 µg/mL)
MIC [10]: 2.49 µM (≈ 8 µg/mL)
MIC [11]: 9.96 µM (≈ 32 µg/mL)
MIC [12]: 9.96 µM (≈ 32 µg/mL)
MIC [13]: 4.98 µM (≈ 16 µg/mL)
MIC (Staphylococcus aureus): 19.5 µM (≈ 62.5 µg/mL)
Structure (SMILES): CC[C@H](C)[C@H](NC(=O)[C@H](Cc1ccccc1)NC(=O)[C@H](Cc1cnc[nH]1)NC(=O)[C@H](CCCCN)NC(=O)[C@@H](NC(=O)[C@@H](N)Cc1ccccc1)[C@@H](C)CC)C(=O)N[C@@H](Cc1cnc[nH]1)C(=O)N[C@@H](CCCN=C(N)N)C(=O)N[C@@H](Cc1ccccc1)C(=O)N[C@@H](CO)C(=O)N[C@@H](C)C(=O)N[C@H](C(=O)N[C@@H](CC(C)C)C(=O)N[C@@H](CCC(N)=O)C(=O)N[C@@H](CC(C)C)C(=O)N[C@@H](CC(C)C)C(=O)N[C@@H](CCCCN)C(=O)N[C@@H](CCC(N)=O)C(=O)N[C@@H](CC(C)C)C(=O)N[C@@H](CC(C)C)C(=O)N[C@@H](CCCCN)C(=O)N[C@@H](CC(C)C)C(=O)N[C@@H](CC(C)C)C(=O)N[C@@H](CCCCN)C(=O)N[C@@H](CCC(N)=O)C(=O)N[C@@H](Cc1ccccc1)C(N)=O)[C@@H](C)O [FIKHFIHRFSATLQLLKQLLKLLKQF]

MIC [14]: 6.52 µM (≈ 10 µg/mL)
MIC [15]: 5.87 µM (≈ 9 µg/mL)
MIC [16]: 1.96 µM (≈ 3 µg/mL)
MIC [17]: 7.83 µM (≈ 12 µg/mL)
Structure (SMILES): CC(C)C[C@H](NC(=O)[C@H](CC(C)C)NC(=O)[C@H](CCCCN)NC(=O)[C@H](CCCCN)NC(=O)[C@H](CC(C)C)NC(=O)[C@H](C)NC(=O)[C@H](CCCCN)NC(=O)[C@H](Cc1ccccc1)NC(=O)[C@H](CC(C)C)NC(=O)[C@H](C)NC(=O)[C@H](CCCCN)NC(=O)[C@H](CC(C)C)NC(=O)[C@@H](N)Cc1ccccc1)C(=O)O [FLKALFKALKKLL]

MIC [16]: ≥ 75 µM
Structure (SMILES): CC[C@H](C)[C@@H]1NC(=O)[C@H](CO)NC(=O)[C@H](CCCCN)NC(=O)[C@@H](N)CSSC[C@@H](C(=O)NCC(=O)O)NC(=O)[C@H](CCCN=C(N)N)NC(=O)CNC(=O)[C@@H]2CCCN2C1=O [CKSIPGRCG]

MIC [18]: 5.3 µM (≈ 12.4 µg/mL)
MIC [19]: 7.3 µM (≈ 17.1 µg/mL)
MIC [20]: 6.4 µM (≈ 15 µg/mL)
MIC [21]: 4.7 µM (≈ 11 µg/mL)
Structure (SMILES): CC(C)C[C@H](NC(=O)[C@H](C)NC(=O)[C@H](CC(N)=O)NC(=O)[C@H](CC(C)C)NC(=O)[C@@H](N)Cc1ccccc1)C(=O)N[C@@H](CCCCN)C(=O)N[C@@H](CC(N)=O)C(=O)N[C@@H](Cc1ccccc1)C(=O)N[C@@H](C)C(=O)N[C@@H](CCCCN)C(=O)N[C@H](C(=O)N[C@@H](C)C(=O)NCC(=O)N[C@@H](CCCCN)C(=O)N[C@@H](CCCN=C(N)N)C(=O)N[C@@H](CC(C)C)C(=O)N[C@@H](CCCCN)C(=O)N[C@@H](CO)C(=O)N[C@@H](CC(C)C)C(=O)N[C@@H](CC(C)C)C(=O)N[C@@H](CC(N)=O)C(=O)O)[C@@H](C)O [FLNALKNFAKTAGKRLKSLLN]

MIC [22]: 25 µM (≈ 37.5 µg/mL)
MIC [23]: 12.5 µM (≈ 18.8 µg/mL)
MIC [24]: 12.5 µM (≈ 18.8 µg/mL)
MIC (Bacillus subtilis 168): ≥ 50 µM
MIC [25]: 25 µM (≈ 37.5 µg/mL)
MIC [26]: ≥ 50 µM
MIC [27]: 25 µM (≈ 37.5 µg/mL)
MIC [28]: 25 µM (≈ 37.5 µg/mL)
MIC [29]: 25 µM (≈ 37.5 µg/mL)
MIC [30]: 50 µM (≈ 75.1 µg/mL)
MIC [31]: 25 µM (≈ 37.5 µg/mL)
MIC [5]: 25 µM (≈ 37.5 µg/mL)
MIC [32]: > 50 µM
MIC [33]: 4.38 µM (≈ 6.58 µg/mL)
MIC [34]: 25 µM (≈ 37.5 µg/mL)
MIC [35]: 25 µM (≈ 37.5 µg/mL)
MIC [36]: 12.5 µM (≈ 18.8 µg/mL)
Structure (SMILES): CC[C@H](C)[C@H](N)C(=O)N1CCC[C@H]1C(=O)N1CCC[C@H]1C(=O)N[C@@H](Cc1ccccc1)C(=O)N[C@H](C(=O)N[C@@H](CCCCN)C(=O)N[C@@H](CCCCN)C(=O)N[C@H](C(=O)N[C@@H](CC(C)C)C(=O)N[C@H](C(=O)N[C@H](C(=O)N[C@H](C(=O)N[C@@H](Cc1ccccc1)C(N)=O)C(C)C)[C@@H](C)O)[C@@H](C)O)C(C)C)[C@@H](C)CC [IPPFIKKVLTTVF]

MIC [9]: 4.98 µM (≈ 16 µg/mL)
MIC [10]: 4.98 µM (≈ 16 µg/mL)
MIC [11]: 9.96 µM (≈ 32 µg/mL)
MIC [12]: 9.96 µM (≈ 32 µg/mL)
MIC [13]: 2.49 µM (≈ 8 µg/mL)
MIC (Staphylococcus aureus): 9.96 µM (≈ 32 µg/mL)
Structure (SMILES): CC[C@H](C)[C@H](NC(=O)[C@H](Cc1ccccc1)NC(=O)[C@H](Cc1cnc[nH]1)NC(=O)[C@H](CCCCN)NC(=O)[C@@H](NC(=O)[C@H](Cc1ccccc1)NC(=O)[C@@H](NC(=O)[C@H](C)NC(=O)[C@H](CO)NC(=O)[C@H](Cc1ccccc1)NC(=O)[C@H](CCC(N)=O)NC(=O)[C@H](CCCCN)NC(=O)[C@H](CC(C)C)NC(=O)[C@H](CC(C)C)NC(=O)[C@H](CCCCN)NC(=O)[C@H](CC(C)C)NC(=O)[C@H](CC(C)C)NC(=O)[C@H](CCC(N)=O)NC(=O)[C@H](CCCCN)NC(=O)[C@H](CC(C)C)NC(=O)[C@H](CC(C)C)NC(=O)[C@H](CCC(N)=O)NC(=O)[C@@H](N)CC(C)C)[C@@H](C)O)[C@@H](C)CC)C(=O)N[C@@H](Cc1cnc[nH]1)C(=O)N[C@@H](CCCN=C(N)N)C(=O)N[C@@H](Cc1ccccc1)C(N)=O [LQLLKQLLKLLKQFSATFIKHFIHRF]
